Data taken from patent US11034650B2, “Compounds useful for treating a Mannheimia haemolytica or Histophilus somni infection” (Intervet Inc., priority 2016, dated 2021).
Values after ≈ are worked out from the molar mass of the structure shown.

Key:
Format in all cases: cell-based
[1] = test system: Mannheimia haemolytica MH 6357 (M7/2, reference strain, cattle infection strain); test: MIC, broth-microdilution (CLSI VET01-A4), strain MH 6357; details: Mannheimia haemolytica strain MH 6357, broth-microdilution; unit assumed
Experimental: (§1) For example, representative compounds were tested against ***, Mannheimia haemolytica and Pasteurella multocida, using the conventional broth-dilution assay.
(§2) The Minimum inhibitory concentrations (MIC) of compounds according to the invention for a number of veterinary bacterial pathogens were determined by the broth-microdilution method according to CLSI document VET01-A4.
(§3) Microdilution trays containing a doubling dilution series of the test compound were used for the tests. The MIC results were interpreted according to the CLSI documents VET01-S3. The lowest concentration of compound at which no visible growth (i.e. no turbidity) detected by the unaided eye was recorded as the MIC.

[2] = test system: Mannheimia haemolytica MH 6374 (ATCC 33396, reference strain); test: MIC, broth-microdilution (CLSI VET01-A4), strain MH 6374; details: Mannheimia haemolytica strain MH 6374, broth-microdilution; unit assumed
Experimental: as §1, §2, §3

[3] = test system: Mannheimia haemolytica MH 10720 (154, BRD field isolate); test: MIC, broth-microdilution (CLSI VET01-A4), strain MH 10720; details: Mannheimia haemolytica strain MH 10720, broth-microdilution; unit assumed
Experimental: as §1, §2, §3

[4] = test system: Mannheimia haemolytica MH 12587 (1071, BRD field isolate, macrolide-resistance: erm+, E+); test: MIC, broth-microdilution (CLSI VET01-A4), strain MH 12587; details: Mannheimia haemolytica strain MH 12587, broth-microdilution; unit assumed
Experimental: as §1, §2, §3

[5] = test system: Mannheimia haemolytica MH 13065 (XB0446-6003.9, BRD field isolate); test: MIC, broth-microdilution (CLSI VET01-A4), strain MH 13065; details: Mannheimia haemolytica strain MH 13065, broth-microdilution; unit assumed
Experimental: as §1, §2, §3

[6] = test system: Mannheimia haemolytica MH 13093 (XB0472-6014.1, BRD field isolate); test: MIC, broth-microdilution (CLSI VET01-A4), strain MH 13093; details: Mannheimia haemolytica strain MH 13093, broth-microdilution; unit assumed
Experimental: as §1, §2, §3

[7] = test system: Pasteurella multocida PM 6267 (P 2225 (L386), reference strain, mouse infection strain); test: MIC, broth-microdilution (CLSI VET01-A4), strain PM 6267; details: Pasteurella multocida strain PM 6267, broth-microdilution; unit assumed
Experimental: as §1, §2, §3

[8] = test system: Pasteurella multocida PM 10775 (080130003051, BRD field isolate); test: MIC, broth-microdilution (CLSI VET01-A4), strain PM 10775; details: Pasteurella multocida strain PM 10775, broth-microdilution; unit assumed
Experimental: as §1, §2, §3

[9] = test system: Pasteurella multocida PM 12080 (IV102277-0093, BRD field isolate); test: MIC, broth-microdilution (CLSI VET01-A4), strain PM 12080; details: Pasteurella multocida strain PM 12080, broth-microdilution; unit assumed
Experimental: as §1, §2, §3

MIC PM 6267 [7] [µg/mL] | MIC PM 10775 [8] [µg/mL] | MIC PM 12080 [9] [µg/mL] | SMILES | MIC MH 6357 [1] [µg/mL] | MIC MH 6374 [2] [µg/mL] | MIC MH 10720 [3] [µg/mL] | MIC MH 12587 [4] [µg/mL] | MIC MH 13065 [5] [µg/mL] | MIC MH 13093 [6] [µg/mL]
≤ 0.1 | ≤ 0.1 | ≤ 0.1 | CC(C)[C@H](NC(=O)c1ccc(C#Cc2ccc(CN3CCOCC3)cc2)cc1)C(=O)NO [Compound 98] | 0.8 (≈ 1.84 µM) | 1.6 (≈ 3.67 µM) | 0.4 (≈ 0.918 µM) | 1.6 (≈ 3.67 µM) | 1.6 (≈ 3.67 µM) | 1.6 (≈ 3.67 µM)
0.4 (≈ 0.831 µM) | ≤ 0.1 | 0.8 (≈ 1.66 µM) | CC(C)[C@H](NC(=O)c1ccc(C#Cc2ccc(CN3CCc4ccccc4C3)cc2)cc1)C(=O)NO [Compound 102] | 3.1 (≈ 6.44 µM) | 3.1 (≈ 6.44 µM) | 0.8 (≈ 1.66 µM) | 12.5 (≈ 26 µM) | 3.1 (≈ 6.44 µM) | 6.3 (≈ 13.1 µM)
≤ 0.1 | ≤ 0.1 | 0.8 (≈ 1.7 µM) | O=C(N[C@@H](CO)C(=O)NO)c1ccc(C#Cc2ccc(CN3CCc4ccccc4C3)cc2)cc1 [Compound 83] | 25 (≈ 53.2 µM) | 0.8 (≈ 1.7 µM) | 0.4 (≈ 0.852 µM) | 1.6 (≈ 3.41 µM) | 0.8 (≈ 1.7 µM) | 1.6 (≈ 3.41 µM)
≤ 0.1 | ≤ 0.1 | ≤ 0.1 | CC(C)[C@H](NC(=O)c1ccc(C#Cc2ccc(CN3CCCOCC3)cc2)cc1)C(=O)NO [Compound 202] | 0.8 (≈ 1.78 µM) | 3.1 (≈ 6.9 µM) | 0.2 (≈ 0.445 µM) | 3.1 (≈ 6.9 µM) | 1.6 (≈ 3.56 µM) | 1.6 (≈ 3.56 µM)
≤ 0.1 | ≤ 0.1 | 0.2 (≈ 0.414 µM) | CC(C)[C@H](NC(=O)c1ccc(C#Cc2ccc(CN3CCS(=O)(=O)CC3)cc2)cc1)C(=O)NO [Compound 99] | 3.1 (≈ 6.41 µM) | 6.3 (≈ 13 µM) | 0.8 (≈ 1.65 µM) | 12.5 (≈ 25.8 µM) | 6.3 (≈ 13 µM) | 6.3 (≈ 13 µM)
≤ 0.1 | ≤ 0.1 | 0.4 (≈ 0.755 µM) | COc1cc2c(cc1OC)CN(Cc1ccc(C#Cc3ccc(C(=O)N[C@@H](CO)C(=O)NO)cc3)cc1)CC2 [Compound 84] | 3.1 (≈ 5.85 µM) | 3.1 (≈ 5.85 µM) | 0.8 (≈ 1.51 µM) | 3.1 (≈ 5.85 µM) | 3.1 (≈ 5.85 µM) | 3.1 (≈ 5.85 µM)

The remaining lines, values behind:

SMILES | MIC PM 6267 [7] [µg/mL] | MIC PM 10775 [8] [µg/mL] | MIC PM 12080 [9] [µg/mL] | MIC MH 6357 [1] [µg/mL] | MIC MH 6374 [2] [µg/mL] | MIC MH 10720 [3] [µg/mL] | MIC MH 12587 [4] [µg/mL] | MIC MH 13065 [5] [µg/mL] | MIC MH 13093 [6] [µg/mL]
CC(C)[C@H](NC(=O)c1ccc(C#Cc2cccc(CNCC(C)(C)C)c2)cc1)C(=O)NO [Compound 27] | 3.1 (≈ 7.12 µM) | 0.8 (≈ 1.84 µM) | 6.3 (≈ 14.5 µM) | 12.5 (≈ 28.7 µM) | 12.5 (≈ 28.7 µM) | 3.1 (≈ 7.12 µM) | 25 (≈ 57.4 µM) | 25 (≈ 57.4 µM) | 25 (≈ 57.4 µM)
COc1ccc(CNCc2ccc(C#Cc3ccc(C(=O)N[C@H](C(=O)NO)C(C)C)cc3)cc2)cc1 [Compound 107] | 0.2 (≈ 0.412 µM) | ≤ 0.1 | 0.4 (≈ 0.824 µM) | 3.1 (≈ 6.38 µM) | 0.8 (≈ 1.65 µM) | 0.4 (≈ 0.824 µM) | 3.1 (≈ 6.38 µM) | 0.8 (≈ 1.65 µM) | 0.8 (≈ 1.65 µM)
O=C(N[C@@H](CO)C(=O)NO)c1ccc(C#Cc2ccc(CNCc3ccc(C(F)(F)F)cc3)cc2)cc1 [Compound 89] | 0.4 (≈ 0.782 µM) | ≤ 0.1 | 1.6 (≈ 3.13 µM) | 6.3 (≈ 12.3 µM) | 3.1 (≈ 6.06 µM) | 1.6 (≈ 3.13 µM) | 12.5 (≈ 24.4 µM) | 6.3 (≈ 12.3 µM) | 6.3 (≈ 12.3 µM)
COCCN(C)Cc1ccc(C#Cc2ccc(C(=O)N[C@H](C(=O)NO)C(C)C)cc2)cc1 [Compound 203] | ≤ 0.1 | ≤ 0.1 | ≤ 0.1 | 1.6 (≈ 3.66 µM) | 1.6 (≈ 3.66 µM) | 0.2 (≈ 0.457 µM) | 3.1 (≈ 7.09 µM) | 0.8 (≈ 1.83 µM) | 1.6 (≈ 3.66 µM)
CC[C@H](C)[C@H](NC(=O)c1ccc(C#Cc2ccc(CNCCOC)cc2)cc1)C(=O)NO [Compound 115] | 0.4 (≈ 0.914 µM) | ≤ 0.1 | 1.6 (≈ 3.66 µM) | 6.3 (≈ 14.4 µM) | 1.6 (≈ 3.66 µM) | 0.8 (≈ 1.83 µM) | 6.3 (≈ 14.4 µM) | 3.1 (≈ 7.09 µM) | 3.1 (≈ 7.09 µM)
